PMC9863266, “Preclinical Studies and Drug Combination of Low-Cost Molecules for Chagas Disease” (Pharmaceuticals, 2022)
pIC50: −log10 of the molar value.

Experiments:
[1] = Stability with microsomal and cytosolic fractions of rat hepatocytes; type: in vitro ADME
Procedure: The qualitative analysis of the in vitro metabolization by the rat hepatocyte microsomal (MF) and cytosolic (CF) fractions of compounds 793, 1019, and 1018 was performed using chromatographic techniques (reverse phase high performance liquid chromatography and thin-layer chromatography). For this, the metabolization was monitored at different times (0, 30, 60 min and 4 h). In both MF and CF of hepatocytes treated with compounds 793 and 1019, it was observed that after one hour, more than 50% (t1/2 < 60 min) of the compounds were metabolized to more hydrophilic compounds. For these compounds, it was observed the appearance of new products of metabolization over time. […] Regarding the structure and metabolism, the heterocycles (thienyl vs. furyl) could be responsible for these different stabilities: the furyl ring would metabolize to an open cycle version, making this system more labile in front of the hepatic metabolization.
For the determination of the stability in the different fractions, cytosolic and microsomal, rat hepatocytes protein fractions were purchased by Sigma® and used according to the previously reported protocol. […] The final concentration of the molecules in the aqueous medium was […] and prepared from stock in DMSO of 40 mM. The solutions were homogenized and incubated at 37 °C for 10 min, 30 min, 1 h, 2 h, 3 h, and 4 h (by TLC). Incubation at 37 °C was performed in a reaction volume of 1 mL containing 2.5 µL of 30 mM magnesium chloride (MgCl2); 2.5 µL of 40 mM nicotinamide […] dinucleotide phosphate (NADP^+); 5 µL of 350 mM glucose 6-phosphate (Glu6P); 5 µL of glucose 6-phosphate dehydrogenase (Glu6PD) 50 U/mL, 5 µL of the stock of 40 mM compounds and the volume of the phosphate buffer (pH = 7) was defined so that cytosolic (CF) and microsomal (MF) fraction present a final protein concentration of 0.1 mg/mL. After that, the stability of compounds 793, 1018, and 1019 in the CF and MF of rat hepatocytes was evaluated by HPLC at different times: 0, 30, and 60 min. […]

CD1 and Balb/c mice = assay: Acute oral toxicity in mice (Up and Down test); type: in vivo; details: 14 days
Procedure: (§1) After verifying, through the studies indicated above, the low in vitro and in vivo toxicity and the potent trypanosomicidal activity of these molecules and following the steps of preclinical drug development, the acute oral toxicity in vivo in mice was tested. For this study, the compounds were administered orally in the same microemulsion that was used in the pharmacological study on the acute model of Chagas disease. The initial number of animals is defined by the software AOT425 Stat and also depends on if there are LD50 of compounds with similar structures. Variable numbers of animals could be used if there is some toxicity observed during the first administrations. […]. In this case, one of the animals died 10 days post-administration. The LD50 calculated by the statistical program from these experiments was 2000 mg/kg b.w., the maximal dose being used for oral administration. As a result, compound 793 has low acute toxicity in these conditions. For compound 1019, a maximum dose of 2000 mg/kg b.w. was started orally in five mice until one of the ends of the trial criteria was met. […] Throughout the test, during the 14 days, the mice were evaluated by the Irwin test and their masses were recorded. […]

[2] = Acute oral toxicity in mice (Up and Down test); type: in vivo; details: CD1 and Balb/c, mouse, in vivo; oral, microemulsion
Procedure: as §1

T. cruzi epimastigotes = details: read-out: In vitro anti-T. cruzi activity (multiple strains) (IC50); cited from earlier work
[3] = test system: CL Brener clone of T. cruzi; set-up: method as in PMID 26492824; details: 192 µmoles/kg/day; cited from earlier work
[4] = target: triosephosphate isomerase recombinant enzyme of T. cruzi (TcTIM); details: cited from earlier work
[5] = test system: epimastigote form of T. cruzi, Tulahuen 2 strain; assay: Mechanism of death by flow cytometry, AV/IP labeling; type: cell-based; details: 20 × IC50
Procedure: Parasites were immediately analyzed on an Accuri C6 flow cytometer (BD Bioscience, Franklin Lakes, New Jersey, U.S.). […] Ten thousand events were analyzed for each of the two independent experiments. Data were analyzed using BD CSampler software (BD Bioscience). Untreated parasites were used as a control. For the positive control of apoptosis and necrosis, the parasites were treated with hydrogen peroxide (H2O2) 50 µM and 100 µM for 2.5 h, respectively. These single-spot controls were used to calculate color compensation for flow cytometry.

[6] = test system: Leishmania spp (cutaneous) promastigotes; set-up: method as in earlier work; details: read-out: In vitro anti-Leishmania spp (cutaneous) activity (IC50); cited from earlier work

With `O=C(/C=C/C=C/c1ccco1)/C=C/C=C/c1ccco1` [Compound 793] the “In vitro metabolic stability (qualitative)” value ([1]; MF and CF of rat hepatocytes, up to 4 h) was “short half-life”, the “Compound metabolized to more hydrophilic compounds” value ([1]; after one hour, both MF and CF) was “more than 50%” and the half-life at 400 µM ([1]; pH 7, both MF and CF of rat hepatocytes) was under 1 h. For the same molecule, the “Signs of acute toxicity (Irwin test, body mass)” value (CD1 and Balb/c mice) was “did not show signs of acute toxicity”, the LD50 at 14 days [2] was 2000 mg/kg and the pIC50 (T. cruzi epimastigotes) was 5.30. For the same molecule, the “Days Post-Infection of the First Parasitemia Peak” value [3] was 22 days, the “Reduction in the Parasitemia Peak (%)” value [3] was 50% and the “Survival (%)” value [3] was 83%. The pIC50 [4] was 5.52, the “AV/IP labeling Q1-UR (double AV+/IP+ labeling)” value ([5]; 6 h) was 74% and the “AV/IP labeling Q1-UR (double AV+/IP+ labeling)” value ([5]; 24 h) was 84%. The pIC50 [6] was 4.44.
